Experimental data reported in patent publication EP2573105B1, “p16INK4a derived peptides for prophylaxis and therapy of HPV-associated tumors and other p16INK4a expressing tumors” (Ruprecht-Karls-Universität Heidelberg, priority 2011, dated 2013).

Test system: Peripheral blood mononuclear cells (PBMCs)
Test: BrdU proliferation assay of PBMCs incubated with p16INK4a peptides
Assay type: cell-based, human
Settings: first reacting patient; PBMCs from women with CIN2/3
Protocol: Peripheral blood mononuclear cells (PBMCs) from 13 women with p16^INK4a-expressing high grade cervical dysplasia (CIN2/3) were incubated with p16^INK4a peptides (Table 1) to determine the proliferative capacity of the immune cells by applying a BrdU assay as a global measure for lymphoproliferative potential after challenge with the p16^INK4a peptides. The BrdU-assay is a colorimetric immunoassay applied for the quantification of cell proliferation based on the measurement of the thymidine analogue 5-bromo-2'-deoxyuridine incorporation during DNA synthesis. PBMCs in IMDM medium supplemented with 10% human serum were seeded in a 96-well-microtiter-plate (flat bottom) at a density of 150.000 cells/50µl/well. Cells in each 4 replicate wells were incubated in the presence of the seven p16INK4a peptides (Table 1), tetanus toxoid (20 ng/ml, Calbiochem, La Jolla, CA) and mitogen PHA-L (5 µg/ml, Roche, Mannheim, Germany) as positive controls and no antigen as negative control for 6 days at 37°C, 5% CO2. […] The enzyme reaction was stopped by adding 25 µl/well 1N H2SO4 and optical density (OD) was measured at 450 nm (reference wavelength 620 nm). […]

GHRDVARYLRAAAGGTRGSNHARIDAAEGPSDIPD [p16INK4a_123-156]
response (proliferation, BrdU assay): showed response
